Data published in patent publication US8354403B2, “Pyrrolidine derived beta 3 adrenergic receptor agonists” (Merck Sharp & Dohme Corp., priority 2009, dated 2013).
pEC50: −log10 of the molar value.

What follows are compounds tested against T1, human β3 adrenergic receptor (Homo sapiens, UniProt P13945) (assay: Beta-3 agonist in vitro functional assay: cAMP production (LANCE TR-FRET) in CHO cells stably transfected with the cloned β3 receptor). Settings: Table 4; cAMP, CHO cells; read-out: Human β3 agonist functional activity.
T1 construct: expressed in transfected cells; host or cells: Chinese hamster ovary (CHO) cells, stably transfected
T1 sequence (P13945 whole entry): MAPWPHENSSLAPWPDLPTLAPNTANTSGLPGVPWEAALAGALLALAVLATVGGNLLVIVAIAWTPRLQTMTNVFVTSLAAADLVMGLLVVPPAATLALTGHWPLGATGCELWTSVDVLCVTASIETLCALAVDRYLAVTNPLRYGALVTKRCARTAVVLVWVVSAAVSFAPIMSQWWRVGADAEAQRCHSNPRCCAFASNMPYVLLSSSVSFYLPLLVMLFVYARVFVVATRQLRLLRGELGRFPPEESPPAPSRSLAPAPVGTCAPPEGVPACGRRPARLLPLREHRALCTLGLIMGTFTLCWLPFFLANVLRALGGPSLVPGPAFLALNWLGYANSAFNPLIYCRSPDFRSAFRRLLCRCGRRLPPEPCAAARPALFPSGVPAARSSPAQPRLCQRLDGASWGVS
Assay type: cell-based
How it was run: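 CHO cells stably expressing the cloned receptor, in HEPES-buffered HBSS with BSA and 0.6 mM IBMX, 6,000 cells/well, exposed to compound for 30 min at RT. cAMP read by LANCE TR-FRET against a cAMP standard curve. Isoproterenol defines maximal stimulation.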

Row | pEC50 | Structure (SMILES)
1 | 7.00 to 8.00 | O=C(c1ccc(C[C@@H]2CC[C@H]([C@H](O)c3ccccc3)N2)cc1)N1CC2CC(n3nccn3)CC2C1 (some centres unmarked) [Example 20]
2 | 6.00 to 7.00 | NC(=O)C1(F)CN(C(=O)c2ccc(C[C@@H]3CC[C@H]([C@H](O)c4ccccc4)N3)cc2)C1 [Example 4]
3 | 6.00 to 7.00 | Cc1nonc1C1CCCN1C(=O)c1ccc(C[C@@H]2CC[C@H]([C@H](O)c3ccccc3)N2)cc1 (some centres unmarked) [Example 14]
4 | 6.00 to 7.00 | C[C@H]1CN(C(=O)c2ccc(C[C@@H]3CC[C@H]([C@H](O)c4ccccc4)N3)cc2)CC[C@@H]1n1cccn1 [Example 62]

Same assay, conditions: Table 5; cAMP, CHO cells; read-out: Human β3 agonist functional activity

Row | pEC50 | Structure (SMILES)
5 | 7.00 to 8.00 | O=C(c1ccc(C[C@@H]2CC[C@H]([C@H](O)c3ccccc3)N2)cc1)N1CCC(S(=O)(=O)CC(F)(F)F)CC1 [Example 125]
6 | 7.00 to 8.00 | O=C(c1ccc(C[C@@H]2CC[C@H]([C@H](O)c3ccccc3)N2)cc1)N1CCC(S(=O)(=O)c2ccc(Cl)cc2)CC1 [Example 136]
7 | 7.00 to 8.00 | O=C(c1ccc(C[C@@H]2CC[C@H]([C@H](O)c3ccccc3)N2)cc1)N1CCC(Cn2cccn2)CC1 [Example 143]
8 | 6.00 to 7.00 | Cc1cncn1C1CCN(C(=O)c2ccc(C[C@@H]3CC[C@H]([C@H](O)c4cccnc4)N3)cc2)CC1 [Example 87]
9 | 6.00 to 7.00 | O=C(c1ccc(C[C@@H]2CC[C@H]([C@H](O)c3ccccc3)N2)cc1)N1CCCCC1 [Example 67]
10 | 7.00 to 8.00 | O=C(c1ccc(C[C@@H]2CC[C@H]([C@H](O)c3ccccc3)N2)cc1)N1CCC(Cn2ccncc2=O)CC1 [Example 151]
11 | 6.00 to 7.00 | O=C(c1ccc(C[C@@H]2CC[C@H]([C@H](O)c3ccccc3)N2)cc1)N1CCC(n2c(=O)[nH]c3cc(Cl)ccc32)CC1 [Example 75]
12 | 7.00 to 8.00 | N#Cc1ccc(S(=O)(=O)C2CCN(C(=O)c3ccc(C[C@@H]4CC[C@H]([C@H](O)c5ccccc5)N4)cc3)CC2)cc1 [Example 137]
13 | 6.00 to 7.00 | CC(Oc1ccncn1)C1CCN(C(=O)c2ccc(C[C@@H]3CC[C@H]([C@H](O)c4ccccc4)N3)cc2)CC1 (some centres unmarked) [Example 167]
14 | 6.00 to 7.00 | O=C(c1ccc(C[C@@H]2CC[C@H]([C@H](O)c3cccnc3)N2)cc1)N1CCC(S(=O)(=O)c2ccc(F)cc2)CC1 [Example 129]
15 | 7.00 to 8.00 | O=C(NC1CCN(C(=O)c2ccc(C[C@@H]3CC[C@H]([C@H](O)c4ccccc4)N3)cc2)CC1)OCc1ccccc1 [Example 68]
16 | 7.00 to 8.00 | O=C(c1ccc(C[C@@H]2CC[C@H]([C@H](O)c3ccccc3)N2)cc1)N1CCC(Oc2ccccn2)CC1 [Example 152]
17 | 6.00 to 7.00 | Cc1nccc(OC2CCN(C(=O)c3ccc(C[C@@H]4CC[C@H]([C@H](O)c5ccccc5)N4)cc3)CC2)n1 [Example 154]
18 | 6.00 to 7.00 | O=C(c1ccc(C[C@@H]2CC[C@H]([C@H](O)c3ccccc3)N2)cc1)N1CCC(n2ccccc2=O)CC1 [Example 70]
19 | 6.00 to 7.00 | O=C(c1ccc(C[C@@H]2CC[C@H]([C@H](O)c3ccccc3)N2)cc1)N1CCC(c2ncccn2)CC1 [Example 114]

Same assay, conditions: Table 7; cAMP, CHO cells; ranges as given for Tables 6 and 7; read-out: Human β3 agonist functional activity

Row | pEC50 | Structure (SMILES)
20 | 7.00 to 8.00 | N#CC1(c2cccnn2)C2CN(C(=O)c3ccc(C[C@@H]4CC[C@H]([C@H](O)c5ccccc5)N4)cc3)CC21 (some centres unmarked) [Example 236]
21 | 7.00 to 8.00 | N#CC1(c2ncccn2)C2CN(C(=O)c3ccc(C[C@@H]4CC[C@H]([C@H](O)c5ccccc5)N4)cc3)CC21 (some centres unmarked) [Example 237]

Same assay, conditions: Table 8; Beta-3 agonist in vitro functional assay; read-out: Human β3 agonist functional activity

Row | pEC50 | Structure (SMILES)
22 | 8.00 to 9.00 | O=C(c1ccc(C[C@@H]2CC[C@H]([C@H](O)c3ccccc3)N2)cc1)N1CCC2(CC1)Nc1ccccc1S(=O)(=O)N2 [Example 334]
23 | 7.00 to 8.00 | Cc1ccc2c(c1)NC(=O)C21CCN(C(=O)c2ccc(C[C@@H]3CC[C@H]([C@H](O)c4ccccc4)N3)cc2)CC1 [Example 300]
24 | 6.00 to 7.00 | COc1ccc(C2(CNC(=O)C(C)(C)C)CCN(C(=O)c3ccc(C[C@@H]4CC[C@H]([C@H](O)c5cccnc5)N4)cc3)CC2)cc1 [Example 247]
25 | 6.00 to 7.00 | CC1(C)OCC2(CCN(C(=O)c3ccc(C[C@@H]4CC[C@H]([C@H](O)c5ccccc5)N4)cc3)CC2)C1O (some centres unmarked) [Example 313]
26 | 8.00 to 9.00 | O=C(c1ccc(C[C@@H]2CC[C@H]([C@H](O)c3cccnc3)N2)cc1)N1CCC2(CC1)C(=O)NCN2c1ccccc1 [Example 259]
27 | 6.00 to 7.00 | CC1(C)CC2(CCN(C(=O)c3ccc(C[C@@H]4CC[C@H]([C@H](O)c5ccccc5)N4)cc3)CC2)CO1 [Example 312]
28 | > 9.00 | CC1(Cc2ccc(F)cc2)CC2(CCN(C(=O)c3ccc(C[C@@H]4CC[C@H]([C@H](O)c5ccccc5)N4)cc3)CC2)OC1=O (some centres unmarked) [Example 278]
29 | 8.00 to 9.00 | CC1(C)CC2(CCN(C(=O)c3ccc(C[C@@H]4CC[C@H]([C@H](O)c5cccnc5)N4)cc3)CC2)C(=O)O1 [Example 294]

Same assay, conditions: Table 9; Beta-3 agonist in vitro functional assay; read-out: Human β3 agonist functional activity

Row | pEC50 | Structure (SMILES)
30 | 7.00 to 8.00 | O=C(c1ccc(C[C@@H]2CC[C@H]([C@H](O)c3ccccc3)N2)cc1)N1CCN(c2ccccc2O)CC1 [Example 359]
31 | 6.00 to 7.00 | O=C(c1ccc(C[C@@H]2CC[C@H]([C@H](O)c3ccccc3)N2)cc1)N1CCN(c2ncccc2F)CC1 [Example 357]
32 | 7.00 to 8.00 | COc1ccccc1CN1CCN(C(=O)c2ccc(C[C@@H]3CC[C@H]([C@H](O)c4ccccc4)N3)cc2)CC1 [Example 409]
33 | 6.00 to 7.00 | CCOC(=O)N1CCN(C(=O)c2ccc(C[C@@H]3CC[C@H]([C@H](O)c4ccccc4)N3)cc2)CC1 [Example 344]
34 | 5.52 to 6.00 | O=C(O)c1csc(N2CCN(C(=O)c3ccc(C[C@@H]4CC[C@H]([C@H](O)c5ccccc5)N4)cc3)CC2)n1 [Example 382]
35 | 8.00 to 9.00 | O=C(c1ccc(C[C@@H]2CC[C@H]([C@H](O)c3ccccc3)N2)cc1)N1CCN(Cc2noc3ccccc23)CC1 [Example 407]
36 | 6.00 to 7.00 | O=C(c1ccc(C[C@@H]2CC[C@H]([C@H](O)c3ccccc3)N2)cc1)N1CCN(c2ncc3ccccc3n2)CC1 [Example 375]
37 | 6.00 to 7.00 | O=C(c1ccc(C[C@@H]2CC[C@H]([C@H](O)c3ccccc3)N2)cc1)N1CCN(C(=O)c2ccco2)CC1 [Example 349]
38 | 6.00 to 7.00 | O=C(O)[C@@H]1CCCN1C(=O)CN1CCN(C(=O)c2ccc(C[C@@H]3CC[C@H]([C@H](O)c4ccccc4)N3)cc2)CC1 [Example 391]

Same assay, conditions: Table 10; Beta-3 agonist in vitro functional assay; read-out: Human β3 agonist functional activity

Row | pEC50 | Structure (SMILES)
39 | 8.00 to 9.00 | CCC(C)(C)NC(=O)C(C)N1CCN(C(=O)c2ccc(C[C@@H]3CC[C@H]([C@H](O)c4ccccc4)N3)cc2)CC1 (some centres unmarked) [Example 439]
40 | 7.00 to 8.00 | CC(C(=O)N1CC=CCC1)N1CCN(C(=O)c2ccc(C[C@@H]3CC[C@H]([C@H](O)c4ccccc4)N3)cc2)CC1 (some centres unmarked) [Example 492]
41 | 7.00 to 8.00 | COC[C@H](C)NC(=O)C(C)N1CCN(C(=O)c2ccc(C[C@@H]3CC[C@H]([C@H](O)c4ccccc4)N3)cc2)CC1 (some centres unmarked) [Example 446]
42 | 6.00 to 7.00 | CC(C(=O)N(C)C(C)(C)C)N1CCN(C(=O)c2ccc(C[C@@H]3CC[C@H]([C@H](O)c4ccccc4)N3)cc2)CC1 (some centres unmarked) [Example 517]
43 | 7.00 to 8.00 | CNC(=O)C(C)N1CCN(C(=O)c2ccc(C[C@@H]3CC[C@H]([C@H](O)c4ccccc4)N3)cc2)CC1 (some centres unmarked) [Example 435]
44 | 7.00 to 8.00 | CCN(CCO)C(=O)C(C)N1CCN(C(=O)c2ccc(C[C@@H]3CC[C@H]([C@H](O)c4ccccc4)N3)cc2)CC1 (some centres unmarked) [Example 520]
45 | 8.00 to 9.00 | CC(C(=O)N1CC(F)C1)N1CCN(C(=O)c2ccc(C[C@@H]3CC[C@H]([C@H](O)c4ccccc4)N3)cc2)CC1 (some centres unmarked) [Example 472]
46 | 7.00 to 8.00 | CC(C(=O)N1CCCCC1C)N1CCN(C(=O)c2ccc(C[C@@H]3CC[C@H]([C@H](O)c4ccccc4)N3)cc2)CC1 (some centres unmarked) [Example 485]
47 | 6.00 to 7.00 | CC(C(=O)NC(C)(C)CO)N1CCN(C(=O)c2ccc(C[C@@H]3CC[C@H]([C@H](O)c4ccccc4)N3)cc2)CC1 (some centres unmarked) [Example 444]
48 | 6.00 to 7.00 | CC(C(=O)NC1CCOCC1)N1CCN(C(=O)c2ccc(C[C@@H]3CC[C@H]([C@H](O)c4ccccc4)N3)cc2)CC1 (some centres unmarked) [Example 468]

Same assay, conditions: Table 11; cAMP, CHO cells; read-out: Human β3 agonist functional activity

Row | pEC50 | Structure (SMILES)
49 | 5.52 to 6.00 | O=C(c1ccc(C[C@@H]2CC[C@H]([C@H](O)c3ccccc3)N2)cc1)N1CC2CC1CN2c1nccs1 (some centres unmarked) [Example 544]
50 | 6.00 to 7.00 | C[C@H](c1ccccn1)N1CC2CC1CN2C(=O)c1ccc(C[C@@H]2CC[C@H]([C@H](O)c3ccccc3)N2)cc1 (some centres unmarked) [Example 537]
51 | 7.00 to 8.00 | C[C@H]1CN(C(=O)c2ccc(C[C@@H]3CC[C@H]([C@H](O)c4ccccc4)N3)cc2)CCN1Cc1nc2ccccc2o1 [Example 531]

Row | Structure (SMILES) | pEC50
52 | O=C(c1ccc(C[C@@H]2CC[C@H]([C@H](O)c3ccccc3)N2)cc1)N1CC2CCC(C1)N2Cc1ccccn1 [Example 535] | 6.00 to 7.00

Same assay, conditions: Table 12; human β3 functional activity given as ranges; read-out: Human β3 agonist functional activity

Row | pEC50 | Structure (SMILES)
53 | 7.00 to 8.00 | CCC(c1ccccn1)N1CCN(C(=O)c2ccc(CC3CCC(C(O)c4ccccc4)N3)cc2)CC1 (single isomer, unassigned) [Example 587]
54 | 7.00 to 8.00 | CC(c1ccccc1F)N1CCN(C(=O)c2ccc(CC3CCC(C(O)c4ccccc4)N3)cc2)CC1 (single isomer, unassigned) [Example 574]
55 | 8.00 to 9.00 | CC(c1ncc2ccccc2n1)N1CCN(C(=O)c2ccc(C[C@@H]3CC[C@H]([C@H](O)c4ccccc4)N3)cc2)CC1 (mixture of isomers) [Example 572]
56 | 7.00 to 8.00 | CC(c1cocn1)N1CCN(C(=O)c2ccc(CC3CCC(C(O)c4ccccc4)N3)cc2)CC1 (single isomer, unassigned) [Example 586]
57 | 7.00 to 8.00 | CC(c1nccs1)N1CCN(C(=O)c2ccc(CC3CCC(C(O)c4ccccc4)N3)cc2)CC1 (single isomer, unassigned) [Example 582]

Same assay, conditions: Table 13; human Beta-3 agonist functional activity given as range; read-out: Human β3 agonist functional activities

Row | pEC50 | Structure (SMILES)
58 | 8.00 to 9.00 | O=C(c1ccc(C[C@@H]2CC[C@H]([C@H](O)c3ccccc3)N2)c(Br)c1)N1CCC2(CCOC2=O)CC1 [Example 610]

Same assay, conditions: given as a range; cAMP, CHO cells; read-out: human β3 functional activity

Row | pEC50 | Structure (SMILES)
59 | 8.00 to 9.00 | O=C(c1ccc(C[C@@H]2CC[C@H]([C@H](O)c3ccccc3)N2)cc1)N1CCC2(CC1)CC(C1CC1)OC2=O (single isomer, unassigned) [Ex. 553]
